Test results: patent US9474790B2, “Stable, protracted GLP-1/glucagon receptor co-agonists for medical use” (Novo Nordisk A/S, priority 2013, dated 2016)
Numbered stars: 1 amine (or outer) side, 2 acyl side, 3 side chain; on linkers, the order of the positions; unused ones are H or OH. Bridge positions count the residues as written; N and C are the ends. Square brackets hold non-standard residues; d marks the D form. Side chains are listed from the residue outwards. Peptide text beside a SMILES is read from it. I, II: the chains in the order shown. * marks the point of attachment. C18 diacid = O=C(O)CCCCCCCCCCCCCCCCC(=O)*; γGlu = O=C(O)[C@H](CCC(=O)[*:2])N[*:1]; Ac4c = NC1(C(=O)O)CCC1; AEEA = NCCOCCOCC(=O)O; Aib = CC(C)(N)C(=O)O

Experiment: Chemical stability assessment by RP-UPLC
Type: physicochemical
Conditions: 333 μM, 8 mM phosphate buffer pH 7.3, 37° C. vs 5° C.
How it was run: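 Purity loss = (purity after 14 days at 5° C. minus that at 37° C.) relative to the 5° C. value, purity being main-peak area % by RP-UPLC with UV at 215 nm. Samples were 333 μM in 8 mM phosphate, pH 7.3; gradient adjusted for outlying retention times.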

SMILES | Purity loss; 14 days at 37° C. [%]
CC(C)C[C@H](NC(=O)[C@H](Cc1ccc(O)cc1)NC(=O)[C@H](CCCCN)NC(=O)[C@H](CO)NC(=O)[C@H](CC(C)C)NC(=O)[C@H](CC(=O)O)NC(=O)[C@H](CO)NC(=O)[C@@H](NC(=O)[C@H](Cc1ccccc1)NC(=O)[C@@H](NC(=O)CNC(=O)[C@H](CCC(N)=O)NC(=O)C(C)(C)NC(=O)[C@@H](N)Cc1c[nH]cn1)[C@@H](C)O)[C@@H](C)O)C(=O)N[C@@H](CCC(=O)O)C(=O)N[C@@H](CO)C(=O)N[C@@H](CCCCN)C(=O)N[C@@H](CCCNC(=N)N)C(=O)N[C@@H](C)C(=O)N[C@@H](CCCNC(=N)N)C(=O)N[C@@H](CCC(=O)O)C(=O)N[C@@H](Cc1ccccc1)C(=O)N[C@H](C(=O)N[C@@H](CCC(N)=O)C(=O)N[C@@H](Cc1c[nH]c2ccccc12)C(=O)N[C@@H](CC(C)C)C(=O)N[C@@H](CC(C)C)C(=O)N[C@@H](CCCCNC(=O)CNC(=O)[C@H](CO)NC(=O)[C@H](CCC(=O)O)NC(=O)CNC(=O)[C@H](CO)NC(=O)CC[C@H](NC(=O)CC[C@H](NC(=O)CCCCCCCCCCCCCCCCC(=O)O)C(=O)O)C(=O)O)C(=O)N[C@H](C(N)=O)[C@@H](C)O)C(C)C [Example 25, N^ε28-[2-[[(2S)-2-[[(2S)-4-carboxy-2-[[2-[[(2S)-2-[[(4S)-4-carboxy-4-[[(4S)-4-carboxy-4-(17-carboxyheptadecanoylamino)butanoyl]amino]butanoyl]amino]-3-hydroxypropanoyl]amino]acetyl]amino]butanoyl]amino]-3-hydroxypropanoyl]amino]acetyl]-[Aib2,Leu10,Glu15,Lys17,Arg20,Glu21,Leu27,Lys28]-Glucagon amide] (I: H-H[Aib]QGTFTSDLSKYLESKRAREFVQWLLKT-NH2 / II: {C18 diacid-γGlu-γGlu}-SGESG; amide I:28-II:C; N-terminus assumed) | 1
CC(C)C[C@H](NC(=O)[C@H](CC(=O)O)NC(=O)[C@H](CC(C)C)NC(=O)[C@H](Cc1ccc(O)cc1)NC(=O)[C@H](CCCCN)NC(=O)[C@H](CO)NC(=O)[C@H](CC(C)C)NC(=O)[C@H](CC(=O)O)NC(=O)[C@H](CO)NC(=O)[C@@H](NC(=O)[C@H](Cc1ccccc1)NC(=O)[C@@H](NC(=O)CNC(=O)[C@H](CCC(N)=O)NC(=O)C(C)(C)NC(=O)[C@@H](N)Cc1c[nH]cn1)[C@@H](C)O)[C@@H](C)O)C(=O)N[C@@H](CCCCN)C(=O)N[C@@H](CCCNC(=N)N)C(=O)N[C@@H](C)C(=O)N[C@@H](CCCNC(=N)N)C(=O)N[C@@H](CCC(=O)O)C(=O)N[C@@H](Cc1ccccc1)C(=O)N[C@H](C(=O)N[C@@H](CCC(N)=O)C(=O)N[C@@H](Cc1c[nH]c2ccccc12)C(=O)N[C@@H](CC(C)C)C(=O)N[C@@H](CC(C)C)C(=O)N[C@@H](CCCCNC(=O)CC[C@H](NC(=O)CC[C@H](NC(=O)COCCOCCNC(=O)COCCOCCNC(=O)CC[C@H](NC(=O)CCCCCCCCCCCCCCCCC(=O)O)C(=O)O)C(=O)O)C(=O)O)C(=O)N[C@H](C(N)=O)[C@@H](C)O)C(C)C [Example 26, N^ε28-[(4S)-4-carboxy-4-[[(4S)-4-carboxy-4-[[2-[2-[2-[[2-[2-[2-[[(4S)-4-carboxy-4-(17-carboxyheptadecanoylamino)butanoyl]amino]ethoxy]ethoxy]-acetyl]amino]ethoxy]ethoxy]acetyl]amino]butanoyl]amino]butanoyl]-[Aib2,Leu10,Leu16,Lys17,Arg20,Glu21, Leu27,Lys28]-Glucagon amide] (H-H[Aib]QGTFTSDLSKYLDLKRAREFVQWLLK([γGlu-γGlu-AEEA-AEEA-γGlu-C18 diacid])T-NH2) | 2
CC(C)C[C@H](NC(=O)[C@H](CC(=O)O)NC(=O)[C@H](CC(C)C)NC(=O)[C@H](Cc1ccc(O)cc1)NC(=O)[C@H](CCCCN)NC(=O)[C@H](CO)NC(=O)[C@H](CC(C)C)NC(=O)[C@H](CC(=O)O)NC(=O)[C@H](CO)NC(=O)[C@@H](NC(=O)[C@H](Cc1ccccc1)NC(=O)[C@@H](NC(=O)CNC(=O)[C@H](CCC(N)=O)NC(=O)C1(NC(=O)[C@@H](N)Cc2c[nH]cn2)CCC1)[C@@H](C)O)[C@@H](C)O)C(=O)N[C@@H](CCCNC(=N)N)C(=O)N[C@@H](CCCNC(=N)N)C(=O)N[C@@H](C)C(=O)N[C@@H](CCCNC(=N)N)C(=O)N[C@@H](CC(=O)O)C(=O)N[C@@H](Cc1ccccc1)C(=O)N[C@H](C(=O)N[C@@H](CCC(N)=O)C(=O)N[C@@H](Cc1c[nH]c2ccccc12)C(=O)N[C@@H](CC(C)C)C(=O)N[C@@H](CC(C)C)C(=O)N[C@@H](CCCCNC(=O)CC[C@H](NC(=O)CC[C@H](NC(=O)COCCOCCNC(=O)COCCOCCNC(=O)CC[C@H](NC(=O)CC[C@H](NC(=O)CCCCCCCCCCCCCCCCC(=O)O)C(=O)O)C(=O)O)C(=O)O)C(=O)O)C(=O)N[C@H](C(N)=O)[C@@H](C)O)C(C)C [Example 45, N^ε28-[(4S)-4-carboxy-4-[[(4S)-4-carboxy-4-[[2-[2-[2-[[2-[2-[2-[[(4S)-4-carboxy-4-[[(4S)-4-carboxy-4-(17-carboxyheptadecanoylamino)butanoyl]amino]butanoyl]amino]ethoxy]ethoxy]acetyl]amino]ethoxy]ethoxy]acetyl]amino]butanoyl]amino]butanoyl]-[Acb2,Leu10,Leu16,Arg20,Leu27,Lys28]-Glucagon amide] (H-H[Ac4c]QGTFTSDLSKYLDLRRARDFVQWLLK([γGlu-γGlu-AEEA-AEEA-γGlu-γGlu-C18 diacid])T-NH2; N-terminus assumed) | 3
CC(C)C[C@H](NC(=O)[C@H](CC(=O)O)NC(=O)[C@H](CC(C)C)NC(=O)[C@H](Cc1ccc(O)cc1)NC(=O)[C@H](CCCNC(=N)N)NC(=O)[C@H](CO)NC(=O)[C@H](CC(C)C)NC(=O)[C@H](CC(=O)O)NC(=O)[C@H](CO)NC(=O)[C@@H](NC(=O)[C@H](Cc1ccccc1)NC(=O)[C@@H](NC(=O)CNC(=O)[C@H](CCC(N)=O)NC(=O)C1(NC(=O)[C@@H](N)Cc2c[nH]cn2)CCC1)[C@@H](C)O)[C@@H](C)O)C(=O)N[C@@H](CCCNC(=N)N)C(=O)N[C@@H](CCCNC(=N)N)C(=O)N[C@@H](C)C(=O)N[C@@H](CCCNC(=N)N)C(=O)N[C@@H](CC(=O)O)C(=O)N[C@@H](Cc1ccccc1)C(=O)N[C@H](C(=O)N[C@@H](CCC(N)=O)C(=O)N[C@@H](Cc1c[nH]c2ccccc12)C(=O)N[C@@H](CC(C)C)C(=O)N[C@@H](CC(C)C)C(=O)N[C@@H](CCCCNC(=O)CC[C@H](NC(=O)CC[C@H](NC(=O)COCCOCCNC(=O)COCCOCCNC(=O)CC[C@H](NC(=O)CC[C@H](NC(=O)CCCCCCCCCCCCCCCCC(=O)O)C(=O)O)C(=O)O)C(=O)O)C(=O)O)C(=O)N[C@H](C(N)=O)[C@@H](C)O)C(C)C [Example 46, N^ε28-[(4S)-4-carboxy-4-[[(4S)-4-carboxy-4-[[2-[2-[2-[[2-[2-[2-[[(4S)-4-carboxy-4-[[(4S)-4-carboxy-4-(17-carboxyheptadecanoylamino)butanoyl]amino]butanoyl]amino]ethoxy]ethoxy]acetyl]amino]ethoxy]ethoxy]acetyl]amino]butanoyl]amino]butanoyl]-[Acb2,Leu10,Arg12,Leu16,Arg20,Leu27,Lys28]-Glucagon amide] (H-H[Ac4c]QGTFTSDLSRYLDLRRARDFVQWLLK([γGlu-γGlu-AEEA-AEEA-γGlu-γGlu-C18 diacid])T-NH2; N-terminus assumed) | 1
CC(C)C[C@H](NC(=O)[C@H](CC(=O)O)NC(=O)[C@H](CC(C)C)NC(=O)[C@H](Cc1ccc(O)cc1)NC(=O)[C@H](CCCCN)NC(=O)[C@H](CO)NC(=O)[C@H](CC(C)C)NC(=O)[C@H](CC(=O)O)NC(=O)[C@H](CO)NC(=O)[C@@H](NC(=O)[C@H](Cc1ccccc1)NC(=O)[C@@H](NC(=O)CNC(=O)[C@H](CCC(N)=O)NC(=O)C(C)(C)NC(=O)[C@@H](N)Cc1c[nH]cn1)[C@@H](C)O)[C@@H](C)O)C(=O)N[C@@H](CCCNC(=N)N)C(=O)N[C@@H](CCCNC(=N)N)C(=O)N[C@@H](C)C(=O)N[C@@H](CCCNC(=N)N)C(=O)N[C@@H](CC(=O)O)C(=O)N[C@@H](Cc1ccccc1)C(=O)N[C@H](C(=O)N[C@@H](CCC(N)=O)C(=O)N[C@@H](Cc1c[nH]c2ccccc12)C(=O)N[C@@H](CC(C)C)C(=O)N[C@@H](CC(C)C)C(=O)N[C@@H](CCCCNC(=O)CNC(=O)[C@H](CO)NC(=O)[C@H](CCC(=O)O)NC(=O)[C@H](CO)NC(=O)CC[C@H](NC(=O)CC[C@H](NC(=O)CCCCCCCCCCCCCCCCC(=O)O)C(=O)O)C(=O)O)C(=O)N[C@H](C(N)=O)[C@@H](C)O)C(C)C [Example 55, N^ε28-[2-[[(2S)-2-[[(2S)-4-carboxy-2-[[(2S)-2-[[(4S)-4-carboxy-4-[[(4S)-4-carboxy-4-(17-carboxyheptadecanoylamino)butanoyl]amino]butanoyl]amino]-3-hydroxypropanoyl]amino]butanoyl]amino]-3-hydroxypropanoyl]amino]acetyl]-[Aib2,Leu10,Leu16,Arg20,Leu27,Lys28]-Glucagon amide] (H-H[Aib]QGTFTSDLSKYLDLRRARDFVQWLLK([Gly-Ser-Glu-Ser-γGlu-γGlu-C18 diacid])T-NH2; N-terminus assumed) | 2
